Experimental findings from ChEMBL document CHEMBL1139555, “Discovery of potent and selective phenylalanine based dipeptidyl peptidase IV inhibitors” (Bioorg Med Chem Lett, 2005) are described below.

Targets include Dipeptidyl peptidase 4 (Homo sapiens, UniProt P27487); Dipeptidyl peptidase 2 (Homo sapiens, UniProt Q9UHL4); Dipeptidyl peptidase 9 (Homo sapiens, UniProt Q86TI2); Dipeptidyl peptidase 8 (Homo sapiens, UniProt Q6V1X1).

Sequence of Dipeptidyl peptidase 9 (Q86TI2 whole entry): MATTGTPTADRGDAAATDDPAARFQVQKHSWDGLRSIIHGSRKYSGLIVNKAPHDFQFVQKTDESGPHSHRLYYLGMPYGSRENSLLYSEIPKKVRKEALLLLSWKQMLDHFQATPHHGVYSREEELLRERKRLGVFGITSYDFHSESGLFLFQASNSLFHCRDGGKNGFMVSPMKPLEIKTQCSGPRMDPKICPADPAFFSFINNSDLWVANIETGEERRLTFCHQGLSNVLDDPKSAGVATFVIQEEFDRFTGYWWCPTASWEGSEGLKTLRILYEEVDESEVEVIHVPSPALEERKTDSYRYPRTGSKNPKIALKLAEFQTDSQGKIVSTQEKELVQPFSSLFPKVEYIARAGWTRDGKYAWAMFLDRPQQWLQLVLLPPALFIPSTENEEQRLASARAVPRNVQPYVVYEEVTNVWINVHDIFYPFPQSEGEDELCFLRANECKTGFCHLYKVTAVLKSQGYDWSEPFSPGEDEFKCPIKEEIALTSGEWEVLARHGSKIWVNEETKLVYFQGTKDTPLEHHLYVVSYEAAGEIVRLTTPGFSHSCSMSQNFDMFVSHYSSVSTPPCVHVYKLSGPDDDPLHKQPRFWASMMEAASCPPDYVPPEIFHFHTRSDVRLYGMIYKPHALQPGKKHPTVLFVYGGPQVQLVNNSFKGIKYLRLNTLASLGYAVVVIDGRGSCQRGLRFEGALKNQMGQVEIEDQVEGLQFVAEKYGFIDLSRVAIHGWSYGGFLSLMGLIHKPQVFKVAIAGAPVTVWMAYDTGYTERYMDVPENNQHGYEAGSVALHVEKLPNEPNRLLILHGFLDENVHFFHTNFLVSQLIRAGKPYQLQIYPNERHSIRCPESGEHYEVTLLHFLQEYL
Sequence of Dipeptidyl peptidase 8 (Q6V1X1 whole entry): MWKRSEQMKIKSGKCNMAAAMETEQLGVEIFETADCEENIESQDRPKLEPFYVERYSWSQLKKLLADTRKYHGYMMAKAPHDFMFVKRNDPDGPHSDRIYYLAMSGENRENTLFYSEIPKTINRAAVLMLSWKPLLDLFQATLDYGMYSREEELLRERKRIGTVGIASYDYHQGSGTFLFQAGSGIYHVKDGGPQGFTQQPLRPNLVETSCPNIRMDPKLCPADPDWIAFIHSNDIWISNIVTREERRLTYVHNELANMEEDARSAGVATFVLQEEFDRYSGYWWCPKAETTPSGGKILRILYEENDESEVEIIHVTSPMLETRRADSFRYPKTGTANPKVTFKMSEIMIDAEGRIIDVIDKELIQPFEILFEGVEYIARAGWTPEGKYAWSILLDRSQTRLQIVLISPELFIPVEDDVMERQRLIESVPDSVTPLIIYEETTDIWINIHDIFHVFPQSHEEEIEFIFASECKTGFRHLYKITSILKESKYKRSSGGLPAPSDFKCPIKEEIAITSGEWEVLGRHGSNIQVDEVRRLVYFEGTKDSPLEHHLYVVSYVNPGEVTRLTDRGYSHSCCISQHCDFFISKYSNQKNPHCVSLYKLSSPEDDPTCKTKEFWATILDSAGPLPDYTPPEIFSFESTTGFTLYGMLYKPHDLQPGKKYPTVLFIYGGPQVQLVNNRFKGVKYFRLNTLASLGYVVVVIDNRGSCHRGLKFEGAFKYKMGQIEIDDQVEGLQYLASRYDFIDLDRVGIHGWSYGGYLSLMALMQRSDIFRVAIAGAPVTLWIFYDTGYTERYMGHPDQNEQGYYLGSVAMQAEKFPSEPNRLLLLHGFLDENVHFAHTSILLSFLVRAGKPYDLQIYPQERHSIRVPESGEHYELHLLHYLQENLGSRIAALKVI
Sequence of Dipeptidyl peptidase 4 (P27487 whole entry): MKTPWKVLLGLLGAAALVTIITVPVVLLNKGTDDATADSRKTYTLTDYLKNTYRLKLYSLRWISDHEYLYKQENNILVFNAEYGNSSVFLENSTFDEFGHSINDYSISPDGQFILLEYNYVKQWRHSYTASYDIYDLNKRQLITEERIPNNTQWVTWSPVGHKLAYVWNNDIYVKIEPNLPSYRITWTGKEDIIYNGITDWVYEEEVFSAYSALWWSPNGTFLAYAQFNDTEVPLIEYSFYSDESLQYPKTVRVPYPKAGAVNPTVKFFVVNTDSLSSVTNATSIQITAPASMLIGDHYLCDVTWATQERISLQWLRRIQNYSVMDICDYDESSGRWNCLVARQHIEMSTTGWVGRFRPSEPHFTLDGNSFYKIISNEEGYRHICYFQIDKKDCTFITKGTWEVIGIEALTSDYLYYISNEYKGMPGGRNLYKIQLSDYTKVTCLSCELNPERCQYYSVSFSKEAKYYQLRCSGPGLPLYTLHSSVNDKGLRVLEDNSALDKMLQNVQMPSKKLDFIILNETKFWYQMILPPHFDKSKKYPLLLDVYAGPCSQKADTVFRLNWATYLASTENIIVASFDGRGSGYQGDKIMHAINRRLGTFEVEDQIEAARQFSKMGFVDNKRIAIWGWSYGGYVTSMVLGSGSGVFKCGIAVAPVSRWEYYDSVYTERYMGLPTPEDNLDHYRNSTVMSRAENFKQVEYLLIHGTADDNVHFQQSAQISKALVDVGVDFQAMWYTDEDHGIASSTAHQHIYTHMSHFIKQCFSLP

`Cc1ccc(-c2ccc([C@H](C)[C@H](N)C(=O)N3CC[C@H](F)C3)cc2)cc1`: the results for the IC50 on Dipeptidyl peptidase 4, against Dipeptidyl peptidase 2 and on Dipeptidyl peptidase 9 were 0.39 µM, 1.1 µM and more than 100 µM, respectively.
On to `C[C@@H](c1ccc(-c2cc(F)cc(F)c2)cc1)[C@H](N)C(=O)N1CC[C@H](F)C1`, for which the values for the IC50 at Dipeptidyl peptidase 4 and against Dipeptidyl peptidase 2 were 0.24 µM and 2 µM, respectively.
`C[C@@H](c1ccc(-c2ccccc2)cc1)[C@H](N)C(=O)N1CC[C@H](F)C1`: the IC50 is 0.12 µM on Dipeptidyl peptidase 4, 3 µM against Dipeptidyl peptidase 2 and more than 100 µM against Dipeptidyl peptidase 9.
Consider `C[C@@H](c1ccc(-c2cccc(NS(=O)(=O)C(F)(F)F)c2)cc1)[C@H](N)C(=O)N1CC[C@H](F)C1`, for which the values for the 50% inhibitory concentration (IC50) on Dipeptidyl peptidase 4, on Dipeptidyl peptidase 8 and against Dipeptidyl peptidase 2 were 0.027 µM, more than 100 µM and 1.3 µM, respectively.
Regarding `CSc1ccc([C@H](C)[C@H](N)C(=O)N2CC[C@H](F)C2)cc1`, the figures for the 50% inhibitory concentration (IC50) at Dipeptidyl peptidase 4 and against Dipeptidyl peptidase 2 were 0.36 µM and 5.9 µM, respectively.
Consider `C[C@@H](c1ccc(-c2cccc(C(N)=O)c2)cc1)[C@H](N)C(=O)N1CC[C@H](F)C1`, for which the midpoint of inhibition at Dipeptidyl peptidase 2, the IC50, lay at 0.82 µM.
`C[C@@H](c1ccc(-c2cncnc2)cc1)[C@H](N)C(=O)N1CC[C@H](F)C1`: the results for the IC50 at Dipeptidyl peptidase 4, against Dipeptidyl peptidase 2 and against Dipeptidyl peptidase 9 were 0.58 µM, 10 µM and more than 100 µM, respectively.
On the same counts, the results for `C[C@@H](c1ccc(-c2ccc(C(F)(F)F)cc2)cc1)[C@H](N)C(=O)N1CC[C@H](F)C1` are 0.51 µM, 0.67 µM and more than 100 µM.
In the case of `C[C@@H](c1ccccc1)[C@H](N)C(=O)N1CCSC1`, the concentration for half-maximal inhibition (IC50) against Dipeptidyl peptidase 4 was 0.968 µM; against Dipeptidyl peptidase 8, more than 100 µM; on Dipeptidyl peptidase 9, more than 100 µM.
On to `C[C@@H](c1ccc(-c2ccc(F)c(F)c2)cc1)[C@H](N)C(=O)N1CC[C@H](F)C1`, for which the IC50 against Dipeptidyl peptidase 4 was 0.06 µM; on Dipeptidyl peptidase 2, 2 µM.
Turning to `COc1ccc(-c2ccc([C@H](C)[C@H](N)C(=O)N3CC[C@H](F)C3)cc2)cc1`, the figures for the IC50 on Dipeptidyl peptidase 4, against Dipeptidyl peptidase 2 and on Dipeptidyl peptidase 9 were 0.13 µM, 0.33 µM and more than 100 µM, respectively.
On the same counts, the results for `C[C@@H](c1ccc(-c2cccc(-n3cnnn3)c2)cc1)[C@H](N)C(=O)N1CC[C@H](F)C1` are 0.14 µM, 0.87 µM and more than 100 µM.
For the molecule `C[C@@H](c1ccc(-c2cccc(-c3n[nH]c(O)n3)c2)cc1)[C@H](N)C(=O)N1CC[C@H](F)C1`, the values for the half-inhibitory concentration (IC50) on Dipeptidyl peptidase 4 and against Dipeptidyl peptidase 2 were 0.095 µM and 1.1 µM, respectively.
For the molecule `C[C@@H](c1ccc(-c2cc(F)ccc2F)cc1)[C@H](N)C(=O)N1CC[C@H](F)C1`, the figures for the IC50 at Dipeptidyl peptidase 8, against Dipeptidyl peptidase 2 and against Dipeptidyl peptidase 9 were more than 100 µM, 1.3 µM and more than 100 µM, respectively.
As to `C[C@@H](c1ccc(-c2cccc(-c3c[nH]c(O)n3)c2)cc1)[C@H](N)C(=O)N1CC[C@H](F)C1`, the IC50 on Dipeptidyl peptidase 4 is 0.11 µM; against Dipeptidyl peptidase 2, 0.83 µM.
On the same counts, the results for `C[C@@H](c1ccc(F)c(Cl)c1)[C@H](N)C(=O)N1CC[C@H](F)C1` are 2.8 µM and 5.2 µM.
For the molecule `C[C@@H](c1ccc(F)cc1)[C@H](N)C(=O)N1CC[C@H](F)C1`, the IC50 against Dipeptidyl peptidase 8 is more than 100 µM; against Dipeptidyl peptidase 2, 23 µM.
Take `C[C@@H](c1ccc(-c2cccc(S(C)(=O)=O)c2)cc1)[C@H](N)C(=O)N1CC[C@H](F)C1`: the results for the IC50 against Dipeptidyl peptidase 4 and at Dipeptidyl peptidase 2 were 0.11 µM and 2.9 µM, respectively.
For `C[C@@H](c1ccc(F)c(F)c1)[C@H](N)C(=O)N1CC[C@H](F)C1`, the IC50 on Dipeptidyl peptidase 4 was 1.1 µM; on Dipeptidyl peptidase 8 it was more than 100 µM; against Dipeptidyl peptidase 2, 11 µM.
With `C[C@@H](c1ccc(-c2cccc(-c3noc(C4CC4)n3)c2)cc1)[C@H](N)C(=O)N1CC[C@H](F)C1`, the IC50 at Dipeptidyl peptidase 4 is 0.14 µM; against Dipeptidyl peptidase 2, 0.096 µM; at Dipeptidyl peptidase 9 it was more than 100 µM.
Turning to `Cc1ccccc1-c1ccc([C@H](C)[C@H](N)C(=O)N2CC[C@H](F)C2)cc1`, the results for the concentration for half-maximal inhibition (IC50) on Dipeptidyl peptidase 8, on Dipeptidyl peptidase 2 and against Dipeptidyl peptidase 9 were more than 100 µM, 2.5 µM and more than 100 µM, respectively.
Turning to `C[C@@H](c1ccc(C(=O)[n+]2ccc[nH]2)cc1)[C@H](N)C(=O)N1CC[C@H](F)C1`, the IC50 at Dipeptidyl peptidase 4 was 1.7 µM; against Dipeptidyl peptidase 2 it was 1.5 µM; at Dipeptidyl peptidase 9 it was more than 100 µM.

One may read the IC50 as the midpoint of a concentration-inhibition curve. Low values mean greater potency in that assay, high ones weaker potency in that assay.
